System: COS-1 cells
Assay: Quantitation of chromatin condensation levels (S.D. value of PI intensity per pixel) in COS-1 cells
Type: cell-based, monkey
Procedure: COS-1, HeLa cells (Japanese Collection of Research Bioresources, Osaka), MCF-7 (provided by H. Saya), A431 (provided by M. N. Fukuda), HEK293 (provided by […]), HCT116 (provided by T. Tomonaga), and SYF ([37]; provided by M. Okada and S. Nada) cells were cultured in Iscove's modified DME containing 5% fetal bovine serum (FBS). Cells were transiently transfected with 0.5 μg of plasmid vector using Trans IT Transfection reagent (Mirus) or with 1 μg of plasmid vector using linear polyethylenimine (25 kDa) (Polyscience, Inc.). For growth factor stimulation, COS-1 cells were starved under low serum conditions (0.05% FBS) for 24 h and restimulated with serum (5% FBS). For stimulation of endogenous SFKs, cells were treated with 3 mM Na3VO4 for 3 h, and SFK-mediated tyrosine phosphorylation was verified by treatment with 10 μM PP2 (SFK inhibitor; Calbiochem) or 100 nM wortmannin (PI3K inhibitor; Alomone Labs) for 21 h before Na3VO4 treatment. Na3VO4 was dissolved at 500 mM in 500 mM unbuffered HEPES before use. For preparation of stable transfectant clones, SYF cells transfected with c-Src-wt or Lyn-wt were selected in 333 μg/mL Zeocin (Invitrogen), and COS-1 cells were transfected with the BOSH2BGFP-N1 vector, which encodes GFP-tagged histone H2B ([39,40]; provided by H. Saya), were selected in 3 μg/mL blasticidin. Confocal and Nomarski differential-interference-contrast images were obtained using a Fluoview FV500 confocal laser scanning microscope with a 40×1.00 NA oil and a 100×1.35 NA oil immersion objective (Olympus, Tokyo) and an LSM 510 confocal laser scanning microscope with a 63×1.40 NA oil immersion objective (Zeiss), as described. One planar (xy) section slice (0.6-μm thickness) is shown in all experiments. In brief, cells were fixed with 4% paraformaldehyde for 20 min, and permeabilized in phosphate-buffered saline (PBS) containing 0.1% saponin and 3% bovine serum albumin at room temperature. Cells were subsequently reacted with an appropriate primary antibody for 1 h, washed with PBS containing 0.1% saponin, stained with FITC- or TRITC-conjugated secondary antibody for 1 h. […] To ensure no bleed-through from the fluorescein signal into the red channel, fluorescein and rhodamine were independently excited at 488 nm and 543 nm, respectively. PI was excited at 488 or 543 nm. Emission signals were detected between 505 and 525 nm for fluorescein, at more than 560 nm for rhodamine and more than 610 nm for PI [44]. Composite figures were prepared using Photoshop 5.0 and Illustrator 9.0 software (Adobe). For nuclear staining with anti-pTyr, anti-ATF-2 […]/71, and anti-histone H3K4me3 antibodies, cells were in situ extracted with 0.5% Triton X-100 at 4° C. for 3 min before fixation with 4% paraformaldehyde. For HP1α staining, cells were fixed in 100% methanol at -20° C. for 10 min followed by permeabilization for 30 min in PBS containing 0.1% Triton X-100 at room temperature. Cells were reacted with anti-HP1α antibody for 1 h at room temperature, washed with PBS four times, and stained with secondary antibody for 1 h. Fluorescence intensity plots of anti-histone H3K4me3, anti-ATF-2 […]/71 and anti-HP1α antibody and PI staining (see FIGS. 18B, 19B, and 20B, respectively) were generated using Fluoview version 4.3 software (Olympus, Tokyo). For detection of the kinase activity of nuclear SFKs, purified nuclei suspended in kinase buffer (50 mM HEPES-NaOH, pH7.4, 5 mM MgCl2, 5 mM MnCl2 and 0.1 mM Na3VO4) were preincubated with or without 10 μM PP2 at 30° C. for 30 min, and subsequently incubated with 5 or 10 μM ATP at 30° C. for 30 min, followed by cytocentrifugation at 200×g for 5 min and fixation with 4% paraformaldehyde. DNA was stained with 20 μg/mL PI and 200 μg/mL RNase A for 30 min. Mean fluorescence intensity of tyrosine-phosphorylated proteins in the nucleus was measured using the ImageJ software (National Institutes of Health). Confocal images of PI-stained nuclei were obtained as described above. […]

## [Na+].[Na+].[Na+].[O]=[V]([O-])([O-])[O-] [Na3VO4, sodium orthovanadate]
COS-1, 3 mM Na3VO4 for 3 h, FIGS. 23 and 26
  hypo- and hypercondensed chromatin states: induced drastic changes

## CC(C)(C)n1nc(-c2ccc(Cl)cc2)c2c(N)ncnc21 [PP2]
COS-1, 10 μM PP2 or 100 nM wortmannin for 24 h, FIGS. 22 and 26
  basal levels of chromatin condensation: significantly reduce
COS-1, 10 μM PP2 pretreatment 21 h, then 3 mM Na3VO4 3 h, FIGS. 23 and 26
  chromatin hypo- and hypercondensation in Na3VO4-treated cells: decrease
COS-1 starved 24 h (0.05% FBS), stimulated with 5% FBS in presence of 10 μM PP2, FIG. 16
  serum-stimulated chromatin hypo- and hypercondensation: significantly inhibited
Cells not specified, hyperosmolar conditions, data not shown
  hyperosmotic stress-induced chromatin structural changes: did not inhibit
